Test results reported in article PMC10816263, “Thermophilic PHP Protein Tyrosine Phosphatases (Cap8C and Wzb) from Mesophilic Bacteria” (International Journal of Molecular Sciences, 2024).

Columns and labels:
Cap8C = Cap8C (Staphylococcus aureus, UniProt P72369); assay: p-nitrophenol release, absorbance […] nm; type: biochemical; conditions: 5 mM pNPP, 0.25 µM enzyme, 1.0 mM Co2+ (also Ni2+ or Mn2+), 92 mM Tris-HCl pH 7.5, 75 °C, 15 min
Wzb = biological target: T1, Wzb (Lacticaseibacillus rhamnosus, UniProt Q58Z13); assay: p-nitrophenol release, absorbance […] nm; type: biochemical; conditions: 5 mM pNPP, 0.25 µM enzyme, 1.0 mM Co2+ (also Ni2+ or Mn2+), 92 mM Tris-HCl pH 7.5, 75 °C, 15 min
T1 sequence (Q58Z13 1-254): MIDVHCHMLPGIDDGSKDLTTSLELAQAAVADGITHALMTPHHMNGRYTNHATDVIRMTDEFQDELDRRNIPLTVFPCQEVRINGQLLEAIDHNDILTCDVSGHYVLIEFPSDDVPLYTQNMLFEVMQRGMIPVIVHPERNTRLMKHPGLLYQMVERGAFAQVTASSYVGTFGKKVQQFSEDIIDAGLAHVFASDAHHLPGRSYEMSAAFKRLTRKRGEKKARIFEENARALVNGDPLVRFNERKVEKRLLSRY

Chain of Cap8C (P72369 entry or part of it): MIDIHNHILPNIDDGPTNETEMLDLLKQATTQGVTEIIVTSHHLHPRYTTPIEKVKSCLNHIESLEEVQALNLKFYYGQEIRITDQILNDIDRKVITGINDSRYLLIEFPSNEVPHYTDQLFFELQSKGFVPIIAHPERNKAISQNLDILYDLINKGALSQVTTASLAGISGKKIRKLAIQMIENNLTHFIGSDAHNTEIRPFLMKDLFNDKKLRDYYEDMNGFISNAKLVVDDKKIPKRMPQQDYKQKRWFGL

With `O=[N+]([O-])c1ccc(OP(=O)(O)O)cc1` [p-nitrophenylphosphate] the “p-nitrophenol release, absorbance 405 nm” value (Cap8C) was “Cap8C and Lactobacillus rhamnosus Wzb proteins were established to have phosphatase activity using pNPP” and the “p-nitrophenol release, absorbance 405 nm” value (Wzb) was “Lactobacillus rhamnosus Wzb proteins were established to have phosphatase activity using pNPP as substrate”.
